This note sets out measurements from US11666619B2, “Composition for treating atopic dermatitis including herbal medicine mixed extract” (University—Industry Cooperation Group of Kyung Hee …, priority 2016, dated 2023).

The test system of experiment [1] is serum IgE and inflammatory cytokines. Briefly: Serum IgE and inflammatory cytokines in DNCB-treated mice (sandwich ELISA). The settings on record: FIG. 6. The experiment is classed as in vivo, mouse. The protocol:
One of the features of AD is high expression levels of blood IgE and inflammatory cytokines. Therefore, to analyze a mechanism of anti-inflammatory activity of KAJD, levels of blood IgE and inflammatory cytokines in DNCB-treated mice were analyzed. In detail, expression levels were analyzed by sandwich ELISA using a BD PharMingen mouse or human ELISA set (Pharmingen, San Diego, Calif., USA). A plate was coated with a capture antibody contained in an ELISA coating buffer (Sigma, St. Louis, Mo., USA), and stored at 4° C. for one day. The plate was washed with 0.05% PBS-Tween 20, and subsequently, blocked with 10% FBS-containing PBS at 20° C. for 1 hour. A standard antigen or sample serially diluted with a dilution buffer (10% FBS-containing PBS) was put in the plate, followed by incubation at 20° C. for 1 hour. Thereafter, biotin-conjugated anti-mouse IgE and SAv-HRP (streptavidin-horseradish peroxidase conjugate) was added to the plate, followed by incubation at 20° C. for 1 hour. Lastly, a TMB (tetramethylbenzidine) substrate solution was added to the plate, and incubated under dark conditions for 15 minutes, and then the reaction was terminated with a 2 N H2SO4 solution. Optical density was measured using an ELISA reader (Versa Max, Molecular Devices, CA, USA) at 450 nm.

The subject of experiment [2] is white blood cells (WBCs). Kind of experiment: Number of white blood cells in blood of DNCB-treated mice (hematology analyzer). The experiment is classed as in vivo, mouse. The settings on record: FIG. 5. The protocol:
High levels of white blood cells (WBCs) are observed in most atopic dermatitis patients. Therefore, to examine therapeutic effects of KAJD on atopic dermatitis, the number of WBCs in the blood of mice was analyzed after treatment with KAJD. In detail, whole blood samples were collected from the heart of a mouse, and stored in a Vacutainer™ tube containing EDTA (BD Science, NJ, USA). The number of WBCs, lymphocytes, monocytes, eosinophils, basophils, or neutrophils was analyzed using a HEMAVET 950 hematology analyzer (Drew Scientific, Inc., Oxford, USA).

Experiment [3] has as its system BALB/c mouse. Kind of experiment: DNCB-induced AD-like skin lesions in BALB/c mouse: clinical signs, skin thickness, spleen weight, body weight. The experiment is classed as in vivo. The settings on record: DNCB-treated BALB/c mice. The source says:
To examine effects of KAJD on atopic dermatitis (AD), DNCB (2,4-dinitrochlorobenzene) was applied to the skin of a BALB/c mouse to induce AD-like symptoms. In many studies regarding atopic dermatitis, models in which atopy-like dermatitis was induced using chemical antigens such as DNCB, 2,4-dinitrofluorobenzene, 2,4,6-trinitrothlorobenzene, etc. are used ([…]. et al, Immunology, 1995, 86, 545-550). In detail, 6-week-old BALB/c mice (20±2 g) were used, which were purchased from Orient Inc. (Seongnam, Korea). Mice were randomly divided into control groups or experimental groups (no treatment, DNCB, DNCB+tacrolimus, DNCB+KAJD), each group including five mice. All mice were raised under a pathogen-free environment with free access to sterile distilled water and solid feed. All mouse experiments were approved by the Experimental Animal Ethics Committee of Kyung Hee University (Approval Number: KHUASP (SE)-14-014). To induce AD-like skin lesions, the dorsal skin of the mouse was shaved, and 100 μL of 2% DNCB was applied thereto using a patch of 1 cm×1 cm twice a week. KAJD or tacrolimus, which is an existing therapeutic agent for AD, was periodically applied to the DNCB-applied skin for 2 weeks. At 28 days, all mice were sacrificed by CO2 inhalation. To examine changes in the skin of the BALB/c mouse by KAJD, clinical signs were observed once a week for 4 weeks. Severities of AD-like lesions in the dorsal skin, which are indicated by erythema/bleeding, edema, exfoliation/dryness, and excoriation/erosion, were scored according to a scale of 0 to 3 (0: absent, 1: mild, 2: moderate, 3: severe). Individual scores were added, and clinical skin scores were defined according to a scale of 0 to 12.

Turning to `C=CC[C@@H]1/C=C(\C)C[C@H](C)C[C@H](OC)[C@H]2O[C@@](O)(C(=O)C(=O)N3CCCC[C@H]3C(=O)O[C@H](/C(C)=C/[C@@H]3CC[C@@H](O)[C@H](OC)C3)[C@H](C)[C@@H](O)CC1=O)[C@H](C)C[C@@H]2OC` [tacrolimus], in experiment [1], the “serum IgE” value was “considerably inhibit” and the “serum inflammatory cytokines (IL-6, IL-10, IL-12)” value is reported as “considerably inhibit”. In experiment [2], the “number of WBC subtypes including lymphocytes, monocytes, eosinophils, basophils, and neutrophils” value is given as “decrease the number of WBC subtypes”; the “number of white blood cells” value was “considerably decrease”. The “scleroderma (thickness of the dorsal skin)” value in experiment [3] (FIG. 2C) was “remarkably decrease”. Further, in experiment [3] (FIG. 2D), the spleen weight entry is reported as “remarkably decrease”. Further, in experiment [3] (topical application, FIG. 2A), the “severe symptoms of the skin (erythema/bleeding, edema, exfoliation/dryness, excoriation/erosion)” value is recorded as “remarkably reduce severe symptoms of the skin”. The “clinical score (severity score of AD-induced skin lesions)” value in experiment [3] (scale of 0 to 12, applied to DNCB-applied skin for 2 weeks, FIG. 2B) was 3.29±0.76.
